Measured values taken from BindingDB's records for patent US20240072809 (Avilar Therapeutics, 2024).

Target: T1, Asialoglycoprotein receptor 1 (Homo sapiens, UniProt P07306)
T1 sequence (P07306 whole entry): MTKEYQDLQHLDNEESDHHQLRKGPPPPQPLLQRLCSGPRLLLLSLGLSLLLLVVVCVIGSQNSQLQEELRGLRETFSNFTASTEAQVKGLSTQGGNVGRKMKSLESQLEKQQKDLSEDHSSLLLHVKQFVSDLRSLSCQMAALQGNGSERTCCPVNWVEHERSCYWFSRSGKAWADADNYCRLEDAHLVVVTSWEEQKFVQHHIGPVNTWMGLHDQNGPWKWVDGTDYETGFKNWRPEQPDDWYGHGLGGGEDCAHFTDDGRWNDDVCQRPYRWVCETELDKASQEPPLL
Assay: ASGPR Measured Using Surface Plasmon Resonance (SPR)
Experimental: Recombinant ASGPR protein is first biotinylated using Maleimide-PEG2-biotin reagent (Pierce, 19-fold molar excess) in phosphate-buffered saline (PBS) solution overnight at 4° C. Excess amount of biotin in the reaction mixture is removed by Zeba desalting columns (Thermo). Biotinylation is confirmed by mass spectroscopic analysis of ASGPR. Biotinylated ASGPR is then immobilized on SA sensor chips (GE Healthcare) with an immobilization level ranging from 1500-3000 resonance units (RU). The running buffer is 50 mM Tris, pH7.5, 150 mM NaCl, 50 mM CaCl2), 0.01% P20, 3% DMSO. […] The compounds are diluted 3 folds with total 8 concentration points. Solutions containing serially diluted compounds are injected at a flow rate of 50 μL/min for 60 sec followed by a 180 sec dissociation phase for each concentration. Data is processed using the analysis software in Biacore 8K to perform background subtraction, double referencing and solvent correction.

Kd	Compound
> 1000 µM	OC[C@H]1OC[C@H](Nc2nc(Cl)cs2)[C@@H](O)[C@H]1O [US20240072809, Compound A99]
< 100 µM	CO[C@@H]1O[C@H](CO)[C@H](O)[C@H](O)[C@H]1Nc1ncns1 [US20240072809, Compound A110]
< 100 µM	OC[C@H]1OC[C@@H](Nc2ncns2)[C@@H](O)[C@H]1O [US20240072809, Compound A147]
> 20 µM	OC[C@H]1OC[C@@H](Nc2nc(Cl)cs2)[C@@H](O)[C@H]1O [US20240072809, Compound A148]
< 100 µM	OC[C@H]1OC[C@H](Nc2nc(-c3ccncc3)ns2)[C@@H](O)[C@H]1O [US20240072809, Compound A319]

Compound	Kd
OCCC[C@@H]1CO[C@H](CO)[C@H](O)[C@@H]1O [US20240072809, Compound A162]	> 1000 µM
